Experimental data published in ChEMBL document CHEMBL1201862, “PubChem BioAssay data set” (2004).
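Method: 48-hour compound exposure of cells in 96-well plates, five concentrations, linear interpolation of endpoints. The concentration for 50% growth inhibition is given as GI50.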 Calls of active or inactive are those of the source. No stated cut-off is given here; in the data, active = GI50 up to about 1.1 µM and inactive = higher.

Columns and labels:
Assay in all cases: NCI-60 cell line screen, 48 h
[1] = test system: RPMI-8226
[2] = test system: A498
[3] = test system: HCT-15
[4] = test system: OVCAR-3
[5] = test system: MOLT-4
[6] = test system: CCRF-CEM
[7] = test system: SF-295
[8] = test system: HCC 2998
[9] = test system: MDA-MB-435
[10] = test system: NCI-H226
[11] = test system: OVCAR-8
[12] = test system: HCT-116
[13] = test system: MCF7
[14] = test system: SK-MEL-5
[15] = test system: PC-3
[16] = test system: SK-MEL-2
[17] = test system: 786-0
[18] = test system: DU-145
[19] = test system: SNB-19
[20] = test system: Hs-578T

Structure (SMILES): NCc1ccc(-c2ccc(CN)s2)s1
- GI50 [1]: > 100 µM (inactive)
- GI50 [2]: 1.22 µM (inactive)
- GI50 [3]: > 100 µM
- GI50 [4]: 42.3 µM (inactive)
- GI50 [5]: > 100 µM (inactive)
- GI50 [6]: > 100 µM (inactive)
- GI50 [7]: > 100 µM (inactive)
- GI50 [8]: > 100 µM (inactive)
- GI50 [9]: > 100 µM (inactive)
- GI50 [10]: 41.1 µM (inactive)
- GI50 [11]: 86.5 µM (inactive)
- GI50 [12]: > 100 µM (inactive)
- GI50 [13]: 44 µM (inactive)
- GI50 [14]: > 100 µM (inactive)
- GI50 [15]: > 100 µM (inactive)
- GI50 [16]: > 100 µM (inactive)
- GI50 [17]: > 100 µM (inactive)
- GI50 [18]: > 100 µM (inactive)
- GI50 [19]: > 100 µM (inactive)

Structure (SMILES): O=S(=O)(c1ccccc1)C1(CCC2OCCO2)C=CC2(CC1)OCCO2 (stereo not given)
- GI50 [1]: > 100 µM (inactive)
- GI50 [2]: > 100 µM (inactive)
- GI50 [3]: > 100 µM
- GI50 [4]: > 100 µM (inactive)
- GI50 [5]: > 100 µM (inactive)
- GI50 [6]: > 100 µM (inactive)
- GI50 [7]: > 100 µM (inactive)
- GI50 [8]: > 100 µM (inactive)
- GI50 [9]: > 100 µM (inactive)
- GI50 [10]: > 100 µM (inactive)
- GI50 [11]: > 100 µM (inactive)
- GI50 [12]: > 100 µM (inactive)
- GI50 [13]: > 100 µM (inactive)
- GI50 [14]: > 100 µM (inactive)
- GI50 [15]: > 10 µM (inactive)
- GI50 [17]: > 100 µM (inactive)
- GI50 [18]: > 100 µM (inactive)
- GI50 [19]: > 100 µM (inactive)

Structure (SMILES): Cc1c(Cl)cccc1/N=N/C(=O)NNc1cccc(Cl)c1C
- GI50 [1]: 25.5 µM (inactive)
- GI50 [2]: 14.4 µM (inactive)
- GI50 [3]: 14.3 µM
- GI50 [4]: 17.6 µM (inactive)
- GI50 [5]: 13.3 µM (inactive)
- GI50 [6]: 16.9 µM (inactive)
- GI50 [8]: 17.3 µM (inactive)
- GI50 [9]: 18.2 µM (inactive)
- GI50 [10]: 15.8 µM (inactive)
- GI50 [11]: 13.5 µM (inactive)
- GI50 [12]: 15.3 µM (inactive)
- GI50 [14]: 15.3 µM (inactive)
- GI50 [15]: 13.3 µM (inactive)
- GI50 [16]: 13.6 µM (inactive)
- GI50 [17]: 23.1 µM (inactive)
- GI50 [18]: 14.4 µM (inactive)
- GI50 [19]: 17.9 µM (inactive)

Structure (SMILES): C[C@H]1CC[C@@H]2[C@@H](C)C[C@H]3[C@@H]4C(C)(C)OC(=O)[C@]4(C)C(=O)[C@@]23C1=O
- GI50 [1]: > 100 µM (inactive)
- GI50 [2]: > 100 µM (inactive)
- GI50 [3]: > 100 µM
- GI50 [4]: > 100 µM (inactive)
- GI50 [5]: > 100 µM (inactive)
- GI50 [6]: > 100 µM (inactive)
- GI50 [7]: > 100 µM (inactive)
- GI50 [8]: > 100 µM (inactive)
- GI50 [9]: > 100 µM (inactive)
- GI50 [10]: > 100 µM (inactive)
- GI50 [11]: > 100 µM (inactive)
- GI50 [20]: > 100 µM (inactive)
- GI50 [12]: > 100 µM (inactive)
- GI50 [13]: > 100 µM (inactive)
- GI50 [14]: > 100 µM (inactive)
- GI50 [17]: > 100 µM (inactive)
- GI50 [18]: > 100 µM (inactive)
- GI50 [19]: > 100 µM (inactive)

Structure (SMILES): CCOC(=O)CCC(NC(=O)C(N)c1ccc([N+](=O)[O-])cc1)C(=O)NC(CCC(=O)OCC)C(=O)OCC (stereo not given)
- GI50 [1]: > 100 µM (inactive)
- GI50 [2]: > 100 µM (inactive)
- GI50 [3]: > 100 µM
- GI50 [5]: > 100 µM (inactive)
- GI50 [8]: > 100 µM (inactive)
- GI50 [10]: > 100 µM (inactive)
- GI50 [11]: > 100 µM (inactive)
- GI50 [20]: > 100 µM (inactive)
- GI50 [12]: > 100 µM (inactive)
- GI50 [13]: > 100 µM (inactive)
- GI50 [14]: > 100 µM (inactive)
- GI50 [15]: > 100 µM (inactive)
- GI50 [16]: > 100 µM (inactive)
- GI50 [17]: > 100 µM (inactive)
- GI50 [19]: > 100 µM (inactive)

Structure (SMILES): CCCCCCCCCCCC[S+](C)C
- GI50 [1]: 3.41 µM (inactive)
- GI50 [2]: 10.7 µM (inactive)
- GI50 [3]: 18.5 µM
- GI50 [4]: 5.38 µM (inactive)
- GI50 [5]: 4.94 µM (inactive)
- GI50 [6]: 2.04 µM (inactive)
- GI50 [7]: 5.87 µM (inactive)
- GI50 [8]: 4.21 µM (inactive)
- GI50 [9]: 3.36 µM (inactive)
- GI50 [10]: 1.77 µM (inactive)
- GI50 [11]: 4.67 µM (inactive)
- GI50 [12]: 6.22 µM (inactive)
- GI50 [13]: 9.02 µM (inactive)
- GI50 [14]: 3.17 µM (inactive)
- GI50 [15]: 1.58 µM (inactive)
- GI50 [16]: 5.02 µM (inactive)
- GI50 [17]: 1.69 µM (inactive)
- GI50 [18]: 1.61 µM (inactive)
- GI50 [19]: 6.59 µM (inactive)

Structure (SMILES): Cc1ccc(-c2c(C#N)c(-c3ccc(Cl)cc3)c(C#N)c(=O)n2NS(=O)(=O)c2ccccc2)cc1
- GI50 [1]: 18.4 µM (inactive)
- GI50 [2]: 86.7 µM (inactive)
- GI50 [3]: 51.6 µM
- GI50 [5]: 55.2 µM (inactive)
- GI50 [6]: 34.4 µM (inactive)
- GI50 [7]: 60.8 µM (inactive)
- GI50 [8]: 37.1 µM (inactive)
- GI50 [9]: > 100 µM (inactive)
- GI50 [10]: 77.3 µM (inactive)
- GI50 [11]: 76.4 µM (inactive)
- GI50 [20]: 24.4 µM (inactive)
- GI50 [12]: 59 µM (inactive)
- GI50 [13]: 51.2 µM (inactive)
- GI50 [14]: 31.9 µM (inactive)
- GI50 [15]: 29.9 µM (inactive)
- GI50 [16]: 25.7 µM (inactive)
- GI50 [17]: 86.5 µM (inactive)
- GI50 [19]: 80.7 µM (inactive)

Structure (SMILES): C=CN(C=C)C(=O)Cn1cc(-c2ccccc2)nn1
- GI50 [1]: > 100 µM (inactive)
- GI50 [3]: > 100 µM
- GI50 [5]: > 100 µM (inactive)
- GI50 [6]: > 100 µM (inactive)
- GI50 [7]: > 100 µM (inactive)
- GI50 [8]: > 100 µM (inactive)
- GI50 [9]: > 100 µM (inactive)
- GI50 [11]: > 100 µM (inactive)
- GI50 [12]: > 100 µM (inactive)
- GI50 [13]: > 100 µM (inactive)
- GI50 [14]: > 100 µM (inactive)
- GI50 [15]: > 100 µM (inactive)
- GI50 [16]: > 100 µM (inactive)
- GI50 [17]: > 100 µM (inactive)
- GI50 [18]: > 100 µM (inactive)
- GI50 [19]: > 100 µM (inactive)
